Reference: PMC9468151, “Identification of a binding site on soluble RANKL that can be targeted to inhibit soluble RANK-RANKL interactions and treat osteoporosis” (Nature Communications, 2022)
Several values for one entry are separate records, joined by “and”; a condition that tells them apart may be missing. Equal values may be shown once.

Key:
[1] = Pharmacokinetic studies in rat; format: in vivo; parameters: plasma concentration-time (fig. S2c): unit not given here
Experimental: 28-week-old and 280 g∼370 g weight male SD (Sprague Dawley) rats were used for pharmacokinetic (PK) studies. Rats were weighed and divided into groups of 3 rats per group. Compounds S3, S3-05 and S3-15 were dissolved in deionized water and made the concentration to 1 mg/mL. Then rats were oral gavage administrated at the doses of 10 mg/kg for each compound. Blood samples were collected in tubes with heparin sodium at 5 min, 10 min, 20 min, 30 min, 40 min, 60 min, 2 h, 3 h, 4 h, 5.5 h, 7 h, 9 h, 12 h, 16 h, 24 h, 32 h, 40 h, 48 h, time points, with three […] per time point for each compound. Blood samples were centrifuged 2100 × g for 10 min at 4 °C, then the plasma was transferred to a clean microfuge tube. Plasma samples were stored at −80 °C. Additionally, ten rats were used as a control and not treated with compound. Plasma from control mice was used to calibrate LC-MS and correct for matrix effects. Drug concentration in plasma was quantified by LC-MS-based methods. Pharmacokinetic parameters were estimated using Phoenix WinNonlin (version 6.3) (Certara USA, Princeton, New Jersey) from mean plasma concentration-time profiles.

[2] = system: sRANKL induced osteoclast differentiation; assay: In vitro anti-osteoclastogenesis activity determination (TRAP staining); format: cell-based, mouse; details: replicates
In short: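 Mouse bone-marrow macrophages in 10 ng/mL M-CSF were stimulated with 100 ng/mL sRANKL plus compound at 9 concentrations, refreshed every 2 days, triplicate wells. After 5 days TRAP-stained osteoclasts were counted; inhibition normalised to untreated and unstimulated controls, IC50 by nonlinear regression.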

[3] = target: T1, sRANKL (Rattus norvegicus, UniProt Q9ESE2, D175N); assay: Surface plasmon resonance (SPR) assay; format: binding; details: immobilized sRANKL, 25 °C
T1 construct: (1) sRANKL (rat 159-318 aa); His6-sumo (N, cleaved yes); made in house; host or cells: Escherichia coli BL21 (DE3)
T1 sequence (Q9ESE2 159-318 D175N): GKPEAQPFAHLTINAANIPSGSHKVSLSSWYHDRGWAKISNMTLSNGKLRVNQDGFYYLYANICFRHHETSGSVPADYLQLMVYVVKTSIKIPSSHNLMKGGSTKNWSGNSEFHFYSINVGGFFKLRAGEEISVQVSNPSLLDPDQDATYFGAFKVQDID
Experimental: A ProteOn XPR36TM SPR instrument (BioRad Hercules, CA) was used for carrying out SPR assays. sRANKL protein in PBS buffer, pH 7.4, was diluted to 20 nM in 10 mM sodium acetate buffer, pH 5.5 and immobilized in parallelflow channels of a the EDAC/Sulfo-NHS activated surface of a GLH biosensor chip (Bio-Rad) with an amine coupling kit (Bio-Rad). The surface was blocked with 1 M ethanolamine. The final immobilization level for sRANKL was approximately 14,000 RU. A blank immobilization channel in the same GLH biosensor chip was also activated with EDAC/Sulfo-NHS and blocked with 1 M ethanolamine to use as a reference.
Biosensor binding experiments were conducted in filtered and degassed running buffer (PBS containing 0.005% Tween-20, pH 7.4) at 25 °C. Compounds was dissolved in 100% DMSO in appropriate different series concentrations of stock solutions. Before detecting, compounds were diluted in six or five concentrations with running buffer and ensured that the content of DMSO contained in each detected concentration was consistent. Compounds in different concentrations were injected simultaneously at a flow rate at […] for 180 s and 120 s for the association phase, followed by 180 s for the disassociation. Following the compound injection, the chip surface was regenerated with 40 s pulses of 0.85% H3PO4 and running buffer.
ProtedOn Manager 2.0. was used for data analysis. Each set of sensorgrams was globally analyzed using the 1:1 Langmuir binding model to obtain the kinetic rate constants (Kon and Koff). Global kinetic rate constants (ka and kd) were derived for each reaction, and the equilibrium dissociation constant, KD, was calculated using the equation KD = kd/ka.

[4] = Sprague-Dawley, rat, male SD rats, oral 10 mg/kg, plasma

Which results are given for `CC(=O)/C(=N\Nc1ccccc1C(=O)O)C(=O)Nc1ccccn1` [S3-15]?
Cmax [1, 4]: 9.52 ± 0.92 µg/mL; half-life [1, 4]: 15.5 h; AUC ([1]; male SD rats, oral 10 mg/kg, plasma): 113.59± 17.41 hr*ug/m; oral availability ([1]; rat PK, in words): significant oral availability; plasma concentration-time (fig. S2c) ([1]; rat, time 0.083 h): 8.91 and 3.381 and 6.675; plasma concentration-time (fig. S2c) ([1]; rat, time 0.167 h): 27.134 and 17.7488 and 10.2458; plasma concentration-time (fig. S2c) ([1]; rat, time 0.333 h): 13.8156 and 22.2223 and 11.4529; plasma concentration-time (fig. S2c) ([1]; rat, time 0.5 h): 17.5658 and 15.3508 and 13.9547; plasma concentration-time (fig. S2c) ([1]; rat, time 0.667 h): 19.2235 and 12.2338 and 15.5001; plasma concentration-time (fig. S2c) ([1]; rat, time 1 h): 10.8474 and 12.0395 and 10.786; plasma concentration-time (fig. S2c) ([1]; rat, time 2 h): 16.2026 and 12.172 and 14.9878; plasma concentration-time (fig. S2c) ([1]; rat, time 3 h): 10.9318 and 10.4453 and 9.091; plasma concentration-time (fig. S2c) ([1]; rat, time 4 h): 11.3125 and 10.0653 and 13.8947; plasma concentration-time (fig. S2c) ([1]; rat, time 5.5 h): 8.587 and 8.51 and 12.2576; plasma concentration-time (fig. S2c) ([1]; rat, time 7 h): 16.4452 and 12.0395 and 11.7835; plasma concentration-time (fig. S2c) ([1]; rat, time 9 h): 19.4794 and 12.2576 and 12.0395; plasma concentration-time (fig. S2c) ([1]; rat, time 12 h): 5.907 and 4.021 and 6.547; plasma concentration-time (fig. S2c) ([1]; rat, time 16 h): 1.447 and 2.372 and 1.915; plasma concentration-time (fig. S2c) ([1]; rat, time 24 h): 0.5718 (2×) and 0.5604; plasma concentration-time (fig. S2c) ([1]; rat, time 28 h): 0.2204 (2×) and 0.3334; plasma concentration-time (fig. S2c) ([1]; rat, time 36 h): 0.2818 (2×) and 0.3414; plasma concentration-time (fig. S2c) ([1]; rat, time 48 h): 0.1406 and 0.08379 and 0.1171; OC inhibitory ratio, sRANKL induced (fig. 3c IC50 curve data) ([2]; 0.003 μM): 7.9602 and 6.219 and 4.726; OC inhibitory ratio, sRANKL induced (fig. 3c IC50 curve data) ([2]; 0.01 μM): -4.229 and 6.965 and 4.975; OC inhibitory ratio, sRANKL induced (fig. 3c IC50 curve data) ([2]; 0.03 μM): 19.1542 and 29.1045 and 33.5821; OC inhibitory ratio, sRANKL induced (fig. 3c IC50 curve data) ([2]; 0.1 μM): 31.8408 and 36.5672 and 39.0547; OC inhibitory ratio, sRANKL induced (fig. 3c IC50 curve data) ([2]; 0.3 μM): 40.2985 and 51.7413 and 33.8308; OC inhibitory ratio, sRANKL induced (fig. 3c IC50 curve data) ([2]; 1 μM): 50.7463 and 58.209 and 52.4876; OC inhibitory ratio, sRANKL induced (fig. 3c IC50 curve data) ([2]; 3.3 μM): 76.6169 and 75.8706 and 78.607; OC inhibitory ratio, sRANKL induced (fig. 3c IC50 curve data) ([2]; 10 μM): 91.791 and 91.0448 and 90.2985; OC inhibitory ratio, sRANKL induced (fig. 3c IC50 curve data) ([2]; 33 μM): 99.005 (2×) and 98.5075; Kd [3]: 33.7 µM
